In publication PMC11839852, “Preclinical comparison of (radio)lanthanides using mass spectrometry and nuclear imaging techniques: biodistribution of lanthanide-based tumor-targeting agents and lanthanides in ionic form” (European Journal of Nuclear Medicine and Molecular Imaging, 2024):
Marks after values point to notes of the source that are not given here. Values belong to the molecule of their own block, whether it stands above or below them.

Legend:
[1] = tested on: non-tumor-bearing immunocompetent FVB mice; experiment: Biodistribution of lanthanide chloride salts LnCl3 (multiplexed ICP-MS); format: in vivo; conditions: for Tissue uptake: Blood / Tissue uptake: Bone / Tissue uptake: Brain / Tissue uptake: Heart / Tissue uptake: Intestines / Tissue uptake: Kidneys / Tissue uptake: Liver / Tissue uptake: Lung / Tissue uptake: Muscle / Tissue uptake: Pancreas / Tissue uptake: Salivary glands / Tissue uptake: Spleen / Tissue uptake: Stomach: non-tumor-bearing mice
[2] = tested on: AR42J tumor cells; experiment: In vitro cell uptake of lanthanide chloride salts; format: cell-based, rat
Method: (§1) A mixture of equal molar amounts of the lanthanide chloride salts (100 nM stock solutions of ^natLuCl3, ^natTbCl3, ^natGdCl3, and ^natEuCl3, diluted in saline with an adjusted pH value to 3.5‒4.0) was prepared to obtain a final concentration of 10 pmol/mL (2.5 pmol/mL per lanthanide salt) and tested with AR42J, PC-3 PIP and KB tumor cells according to the same protocol as described for the Ln-labeled biomolecules (Supplementary Material). Analogous in vitro cell uptake studies were also performed with lanthanide metal complexes of diethylenetriaminepentaacetic acid (DTPA, Sigma Aldrich Chemie, Steinheim, Germany) to obtain a final concentration of 10 pmol/mL (2.5 pmol/mL per lanthanide complex) (Supplementary Material).
(§2) Cell uptake studies were performed in triplicate in 3‒6 independent experiments and the results presented as the average ± standard deviation (SD). Data were normalized to the values measured for the ^175Lu-labeled tumor targeting agent or [^175Lu]LuCl3, which were set as 100% and zero was defined as 0%. Statistical significance of the normalized data was assessed for the comparison of the values obtained for terbium, gadolinium and europium analogues with those obtained for the lutetium counterparts by applying one-way ANOVA with the Dunnett’s post-test using GraphPad Prism software (version 8). A p-value of < 0.05 was considered statistically significant.
(§3) Methods: The same experimental setting as described for Ln-labeled biomolecules was applied to perform uptake and internalization studies with the lanthanide salts (LnCl3; Ln = ^natLu, ^natTb, ^natGd and ^natEu). The applied solution was a mixture of the four lanthanide salts yielding a final concentration of 0.4 µM. Of these mixtures, 25 μL were added to the corresponding well with tumor cells. The cells were incubated for 1 h and 4 h, respectively, at 37 °C and 5% CO2. After incubation, the tumor cells were treated as described for the Ln-labeled biomolecules and processed for the measurement with ICP-MS.

[3] = tested on: PC-3 PIP tumor cells; experiment: In vitro cell uptake of lanthanide chloride salts; format: cell-based, human
Method: as §1, §2, §3

[4] = tested on: KB tumor cells; experiment: In vitro cell uptake of lanthanide chloride salts; format: cell-based, human; conditions: 1 h incubation
Method: as §1, §2, §3

[5] = tested on: non-tumor-bearing immunocompetent FVB mice; experiment: Dual-isotope SPECT/CT imaging of [177Lu]LuCl3 and [161Tb]TbCl3; format: in vivo; conditions: radiolanthanides in chloride form
Method: Dual-isotope SPECT studies with mice were performed as previously reported. Tumor-bearing nude mice (n = 2‒3 for each type of radioconjugate) were injected with 20 MBq (1 nmol) of a mixture of ^177Lu- and ^161Tb-labeled tumor-targeting agents (each 10 MBq, 0.5 nmol) diluted in saline containing 0.05% BSA. Non-tumor-bearing immunocompetent FVB mice (n = 2) were injected with 20 MBq of a mixture of [^177Lu]LuCl3 (10 MBq, 13.8 pmol) and [^161Tb]TbCl3 (10 MBq, 14.3 pmol) diluted with saline containing 0.05% BSA with a final pH value of 4.5. Additional mice (n = 2) were injected with colloids of lutetium-177 and terbium-161 obtained by diluting the chloride salts with PBS of pH 7.4 (Supplementary Material). SPECT/CT images were acquired 1 h, 4 h and 24 h after injection of the activity solutions using a dedicated small-animal SPECT/CT scanner (NanoSPECT/CT, Mediso Medical Imaging Systems, Budapest, Hungary) and the Nucline software (version 1.02, Mediso Ltd., Budapest, Hungary). Counts stemming from the γ-lines of lutetium-177 (112.9 keV ± 10% and 208.4 ± 10%) and the γ-lines and x-rays of terbium-161 (47.7 keV ± 10% and 74.6 keV ± 10%) were simultaneously registered using the respective energy windows for each radionuclide. […]

[6] = 24 h p.i., estimated ratios (organ <0.5% ID/g)
[7] = 96 h p.i., estimated ratios (organ <0.5% ID/g)

Organ ratios: Blood-to-bone ([1]; 1 h p.i.): 0.38 ± 0.08
Organ ratios: Blood-to-liver ([1]; 1 h p.i.): 0.19 ± 0.05
Organ ratios: Liver-to-bone ([1]; 1 h p.i.): 2.0 ± 0.3
Tissue uptake: Blood ([1]; 1 h p.i.): 5.0 ± 0.9 % ID/g
Tissue uptake: Bone ([1]; 1 h p.i.): 13 ± 2 % ID/g
Tissue uptake: Brain ([1]; 1 h p.i.): 1.1 ± 0.8 % ID/g
Tissue uptake: Heart ([1]; 1 h p.i.): 4.8 ± 2.2 % ID/g
Tissue uptake: Intestines ([1]; 1 h p.i.): 2.6 ± 1.0 % ID/g
Tissue uptake: Kidneys ([1]; 1 h p.i.): 8.7 ± 2.5 % ID/g
Tissue uptake: Liver ([1]; 1 h p.i.): 27 ± 3 % ID/g
Tissue uptake: Lung ([1]; 1 h p.i.): 4.8 ± 1.2 % ID/g
Tissue uptake: Muscle ([1]; 1 h p.i.): 1.6 ± 0.9 % ID/g
Tissue uptake: Pancreas ([1]; 1 h p.i.): 2.2 ± 1.0 % ID/g
Tissue uptake: Salivary glands ([1]; 1 h p.i.): 2.4 ± 1.4 % ID/g
Tissue uptake: Spleen ([1]; 1 h p.i.): 6.1 ± 1.4 % ID/g
Tissue uptake: Stomach ([1]; 1 h p.i.): 6.0 ± 2.3 % ID/g
Organ ratios: Liver-to-bone ([1]; 24 h p.i.): 1.6 ± 0.5
Organ ratios: Blood-to-bone [1, 6]: <0.04^*
Organ ratios: Blood-to-liver [1, 6]: <0.02^*
Tissue uptake: Blood ([1]; 24 h p.i.): <0.5 % ID/g
Tissue uptake: Bone ([1]; 24 h p.i.): 15 ± 2 % ID/g
Tissue uptake: Brain ([1]; 24 h p.i.): <0.5 % ID/g
Tissue uptake: Heart ([1]; 24 h p.i.): 0.76 ± 0.10 % ID/g
Tissue uptake: Intestines ([1]; 24 h p.i.): 0.54 ± 0.05 % ID/g
Tissue uptake: Kidneys ([1]; 24 h p.i.): 3.8 ± 0.8 % ID/g
Tissue uptake: Lung ([1]; 24 h p.i.): 1.0 ± 0.1 % ID/g
Tissue uptake: Muscle ([1]; 24 h p.i.): <0.5 % ID/g
Tissue uptake: Pancreas ([1]; 24 h p.i.): <0.5 % ID/g
Tissue uptake: Salivary glands ([1]; 24 h p.i.): <0.5 % ID/g
Tissue uptake: Spleen ([1]; 24 h p.i.): 5.0 ± 1.1 % ID/g
Tissue uptake: Stomach ([1]; 24 h p.i.): 1.8 ± 0.4 % ID/g
Tissue uptake: Liver ([1]; 24 h p.i., listed as natTb): ~ 22 % ID/g
Tissue uptake: Liver ([1]; 24 h p.i., listed as terbium): 22 ± 5 % ID/g
Organ ratios: Liver-to-bone ([1]; 96 h p.i.): 0.59 ± 0.18
Organ ratios: Blood-to-bone [1, 7]: <0.03^*
Organ ratios: Blood-to-liver [1, 7]: <0.05^*
Tissue uptake: Blood ([1]; 96 h p.i.): <0.5 % ID/g
Tissue uptake: Bone ([1]; 96 h p.i.): 19 ± 4 % ID/g
Tissue uptake: Brain ([1]; 96 h p.i.): <0.5 % ID/g
Tissue uptake: Heart ([1]; 96 h p.i.): 0.73 ± 0.05 % ID/g
Tissue uptake: Intestines ([1]; 96 h p.i.): 0.52 ± 0.01 % ID/g
Tissue uptake: Kidneys ([1]; 96 h p.i.): 2.0 ± 0.1 % ID/g
Tissue uptake: Liver ([1]; 96 h p.i.): 11 ± 1 % ID/g
Tissue uptake: Lung ([1]; 96 h p.i.): 0.91 ± 0.10 % ID/g
Tissue uptake: Muscle ([1]; 96 h p.i.): <0.5 % ID/g
Tissue uptake: Pancreas ([1]; 96 h p.i.): <0.5 % ID/g
Tissue uptake: Salivary glands ([1]; 96 h p.i.): <0.5 % ID/g
Tissue uptake: Spleen ([1]; 96 h p.i.): 3.1 ± 0.2 % ID/g
Tissue uptake: Stomach ([1]; 96 h p.i.): 2.2 ± 0.4 % ID/g
Compound: [Cl][Tb]([Cl])[Cl] [[^159Tb]TbCl3]
Lanthanide uptake compared with [175Lu]LuCl3 [2]: No significant difference
Lanthanide uptake compared with [175Lu]LuCl3 [3]: No significant difference
Detected amount compared with lutetium [4]: significantly lower

Bone uptake on SPECT images [5]: higher bone uptake
Compound: [Cl][Lu]([Cl])[Cl] [[^177Lu]LuCl3]
